{"source": "ChEMBL document CHEMBL4011641", "about": "“Prodrugs of Pyrazolo[3,4-d]pyrimidines: From Library Synthesis to Evaluation as Potential Anticancer Agents in an Orthotopic Glioblastoma Model” (J Med Chem, 2017)", "key": {"[1]": {"assay": "Antitumor activity against human U87 cells xenografted in nude immunodeficient CD1 mouse assessed as mean survival time at 50 mg/kg, po administered every other day (reference value: 30 day)", "type": "functional, U-87MG ATCC"}, "Mus musculus [2]": {"system": "Mus musculus", "assay": "MRT in BALB/C mouse assessed as N-(3-bromophenyl)-1-(2-chloro-2-phenylethyl)-6-(2-morpholinoethylthio)-1H-pyrazolo[3,4-d]pyrimidin-4-amine level at 50 mg/kg administered through oral gavage as methylcellulose formulation measured at 1 to 24 hrs post dose by UV/LC-MS analysis", "type": "ADME, organism-based", "details": "in vivo"}, "Mus musculus [3]": {"system": "Mus musculus", "assay": "Tmax in BALB/C mouse assessed as N-(3-bromophenyl)-1-(2-chloro-2-phenylethyl)-6-(2-morpholinoethylthio)-1H-pyrazolo[3,4-d]pyrimidin-4-amine level at 50 mg/kg administered through oral gavage as methylcellulose formulation measured at 1 to 24 hrs post dose by UV/LC-MS analysis", "type": "ADME, organism-based", "details": "in vivo"}, "[4]": {"assay": "Metabolic stability in human liver microsomes assessed as parent compound remaining at 50 uM after 1 hr in presence of NADPH regenerating system by UV/LC-MS analysis", "type": "ADME, microsome", "details": "read-out: Stability"}, "[5]": {"assay": "Metabolic stability in mouse liver microsomes assessed as unmetabolized compound remaining at 50 uM after 1 hr in presence of NADPH regenerating system by UV/LC-MS analysis", "type": "ADME, microsome", "details": "read-out: Stability"}, "[6]": {"assay": "Plasma concentration in BALB/C mouse at 50 mg/kg, ip via bolus administration measured at 24 hrs post dose by UV/LC-MS", "type": "ADME, organism-based"}, "Brain": {"system": "Brain", "assay": "Drug uptake in BALB/C mouse brain at 50 mg/kg, ip via bolus administration measured at 24 hrs post dose by UV/LC-MS analysis", "type": "ADME, organism-based", "details": "in vivo"}, "[7]": {"assay": "Cmax in BALB/C mouse at 50 mg/kg, ip administered via bolus dose using DMSO formulation measured at 1 to 24 hrs post dose by UV/LC-MS analysis", "type": "ADME, organism-based", "parameters": "dose 50 mg/kg, route intraperitoneal", "details": "in vivo"}, "[8]": {"assay": "Tmax in BALB/C mouse at 50 mg/kg, ip administered via bolus dose using DMSO formulation measured at 1 to 24 hrs post dose by UV/LC-MS analysis", "type": "ADME, organism-based", "details": "in vivo"}, "[9]": {"assay": "MRT in BALB/C mouse at 50 mg/kg, ip administered via bolus dose using DMSO formulation measured at 1 to 24 hrs post dose by UV/LC-MS analysis", "type": "ADME, organism-based", "details": "in vivo"}, "[10]": {"assay": "AUC (0 to infinity) in BALB/C mouse at 50 mg/kg, ip administered via bolus dose using DMSO formulation measured at 1 to 24 hrs post dose by UV/LC-MS analysis", "type": "ADME, organism-based", "parameters": "dose 50 mg/kg, time infinity, route intraperitoneal", "details": "in vivo"}, "[11]": {"assay": "AUC (0 to 24 hrs) in BALB/C mouse at 50 mg/kg, ip administered via bolus dose using DMSO formulation measured at 1 to 24 hrs post dose by UV/LC-MS analysis", "type": "ADME, organism-based", "parameters": "dose 50 mg/kg, time < 24 hr, route intraperitoneal", "details": "in vivo"}, "[12]": {"assay": "Plasma clearance in BALB/C mouse at 50 mg/kg, ip administered via bolus dose using DMSO formulation measured at 1 to 24 hrs post dose by UV/LC-MS analysis", "type": "ADME, organism-based"}, "[13]": {"assay": "Half life in BALB/C mouse at 50 mg/kg, ip administered via bolus dose using DMSO formulation measured at 1 to 24 hrs post dose by UV/LC-MS analysis", "type": "ADME, organism-based", "details": "in vivo"}, "Mus musculus [14]": {"system": "Mus musculus", "assay": "Cmax in BALB/C mouse assessed as N-(3-bromophenyl)-1-(2-chloro-2-phenylethyl)-6-(2-morpholinoethylthio)-1H-pyrazolo[3,4-d]pyrimidin-4-amine level at 50 mg/kg, ip administered via bolus dose using DMSO formulation measured at 1 to 24 hrs post dose by UV/LC-MS analysis", "type": "ADME, organism-based", "parameters": "dose 50 mg/kg, route intraperitoneal", "details": "in vivo"}, "Mus musculus [15]": {"system": "Mus musculus", "assay": "Tmax in BALB/C mouse assessed as N-(3-bromophenyl)-1-(2-chloro-2-phenylethyl)-6-(2-morpholinoethylthio)-1H-pyrazolo[3,4-d]pyrimidin-4-amine level at 50 mg/kg, ip administered via bolus dose using DMSO formulation measured at 1 to 24 hrs post dose by UV/LC-MS analysis", "type": "ADME, organism-based", "details": "in vivo"}, "Mus musculus [16]": {"system": "Mus musculus", "assay": "MRT in BALB/C mouse assessed as N-(3-bromophenyl)-1-(2-chloro-2-phenylethyl)-6-(2-morpholinoethylthio)-1H-pyrazolo[3,4-d]pyrimidin-4-amine level at 50 mg/kg, ip administered via bolus dose using DMSO formulation measured at 1 to 24 hrs post dose by UV/LC-MS analysis", "type": "ADME, organism-based", "details": "in vivo"}, "Mus musculus [17]": {"system": "Mus musculus", "assay": "AUC (0 to infinity) in BALB/C mouse assessed as N-(3-bromophenyl)-1-(2-chloro-2-phenylethyl)-6-(2-morpholinoethylthio)-1H-pyrazolo[3,4-d]pyrimidin-4-amine level at 50 mg/kg, ip administered via bolus dose using DMSO formulation measured at 1 to 24 hrs post dose by UV/LC-MS analysis", "type": "ADME, organism-based", "parameters": "dose 50 mg/kg, time infinity, route intraperitoneal", "details": "in vivo"}, "Mus musculus [18]": {"system": "Mus musculus", "assay": "AUC (0 to 24 hrs) in BALB/C mouse assessed as N-(3-bromophenyl)-1-(2-chloro-2-phenylethyl)-6-(2-morpholinoethylthio)-1H-pyrazolo[3,4-d]pyrimidin-4-amine level at 50 mg/kg, ip administered via bolus dose using DMSO formulation measured at 1 to 24 hrs post dose by UV/LC-MS analysis", "type": "ADME, organism-based", "parameters": "dose 50 mg/kg, time < 24 hr, route intraperitoneal", "details": "in vivo"}, "Mus musculus [19]": {"system": "Mus musculus", "assay": "Plasma clearance in BALB/C mouse assessed as N-(3-bromophenyl)-1-(2-chloro-2-phenylethyl)-6-(2-morpholinoethylthio)-1H-pyrazolo[3,4-d]pyrimidin-4-amine level at 50 mg/kg, ip administered via bolus dose using DMSO formulation measured at 1 to 24 hrs post dose by UV/LC-MS analysis", "type": "ADME, organism-based", "details": "in vivo"}, "Mus musculus [20]": {"system": "Mus musculus", "assay": "Half life in BALB/C mouse assessed as N-(3-bromophenyl)-1-(2-chloro-2-phenylethyl)-6-(2-morpholinoethylthio)-1H-pyrazolo[3,4-d]pyrimidin-4-amine level at 50 mg/kg, ip administered via bolus dose using DMSO formulation measured at 1 to 24 hrs post dose by UV/LC-MS analysis", "type": "ADME, organism-based", "details": "in vivo"}, "Mus musculus [21]": {"system": "Mus musculus", "assay": "Cmax in BALB/C mouse assessed as N-(3-bromophenyl)-1-(2-chloro-2-phenylethyl)-6-(2-morpholinoethylthio)-1H-pyrazolo[3,4-d]pyrimidin-4-amine level at 50 mg/kg administered through oral gavage as methylcellulose formulation measured at 1 to 24 hrs post dose by UV/LC-MS analysis", "type": "ADME, organism-based", "parameters": "dose 50 mg/kg, route oral", "details": "in vivo"}, "Mus musculus [22]": {"system": "Mus musculus", "assay": "AUC (0 to infinity) in BALB/C mouse assessed as N-(3-bromophenyl)-1-(2-chloro-2-phenylethyl)-6-(2-morpholinoethylthio)-1H-pyrazolo[3,4-d]pyrimidin-4-amine level at 50 mg/kg administered through oral gavage as methylcellulose formulation measured at 1 to 24 hrs post dose by UV/LC-MS analysis", "type": "ADME, organism-based", "parameters": "dose 50 mg/kg, route oral, time infinity", "details": "in vivo"}, "Mus musculus [23]": {"system": "Mus musculus", "assay": "AUC (0 to 24 hrs) in BALB/C mouse assessed as N-(3-bromophenyl)-1-(2-chloro-2-phenylethyl)-6-(2-morpholinoethylthio)-1H-pyrazolo[3,4-d]pyrimidin-4-amine level at 50 mg/kg administered through oral gavage as methylcellulose formulation measured at 1 to 24 hrs post dose by UV/LC-MS analysis", "type": "ADME, organism-based", "parameters": "dose 50 mg/kg, time < 24 hr, route oral", "details": "in vivo"}, "Mus musculus [24]": {"system": "Mus musculus", "assay": "Plasma clearance in BALB/C mouse assessed as N-(3-bromophenyl)-1-(2-chloro-2-phenylethyl)-6-(2-morpholinoethylthio)-1H-pyrazolo[3,4-d]pyrimidin-4-amine level at 50 mg/kg administered through oral gavage as methylcellulose formulation measured at 1 to 24 hrs post dose by UV/LC-MS analysis", "type": "ADME, organism-based", "details": "in vivo"}, "Mus musculus [25]": {"system": "Mus musculus", "assay": "Half life in BALB/C mouse assessed as N-(3-bromophenyl)-1-(2-chloro-2-phenylethyl)-6-(2-morpholinoethylthio)-1H-pyrazolo[3,4-d]pyrimidin-4-amine level at 50 mg/kg administered through oral gavage as methylcellulose formulation measured at 1 to 24 hrs post dose by UV/LC-MS analysis", "type": "ADME, organism-based", "details": "in vivo"}, "Kidney": {"system": "Kidney", "assay": "Drug uptake in BALB/C mouse kidney at 50 mg/kg, ip via bolus administration measured at 24 hrs post dose by UV/LC-MS", "type": "ADME, organism-based", "details": "in vivo"}, "[26]": {"assay": "Drug uptake in BALB/C mouse adipose tissue at 50 mg/kg, ip via bolus administration measured at 24 hrs post dose by UV/LC-MS", "type": "ADME, organism-based", "details": "in vivo"}, "Liver": {"system": "Liver", "assay": "Drug uptake in BALB/C mouse liver at 50 mg/kg, ip via bolus administration measured at 24 hrs post dose by UV/LC-MS", "type": "ADME, organism-based", "details": "in vivo"}, "cells [27]": {"assay": "cells", "details": "Homo sapiens, U-87 MG, 24 h", "description": "Cytotoxicity against human U87 cells assessed as reduction in cell viability after 24 hrs by trypan blue assay"}, "cells [28]": {"assay": "cells", "details": "Homo sapiens, U-87 MG, 48 h", "description": "Cytotoxicity against human U87 cells assessed as reduction in cell viability after 48 hrs by trypan blue assay"}, "cells [29]": {"assay": "cells", "details": "Homo sapiens, U-87 MG, 72 h", "description": "Cytotoxicity against human U87 cells assessed as reduction in cell viability after 72 hrs by trypan blue assay"}, "physchem [30]": {"assay": "physchem", "details": "PAMPA", "description": "Apparent permeability at 500 uM after 5 hrs by Blood-Brain Barrier-based PAMPA"}, "physchem [31]": {"assay": "physchem", "details": "aqueous", "description": "Aqueous solubility of compound at 1 mg after 24 hrs by UV/LC-MS analysis"}}}
{"smiles": "ClC(Cn1ncc2c(Nc3cccc(Br)c3)nc(SCCN3CCOCC3)nc21)c1ccccc1", "note": "(centres undefined)", "values": [{"measurement": "MST", "setting": "[1]", "result": 44, "unit": "days"}, {"measurement": "MRT", "setting": "Mus musculus [2]", "result": 11.97, "unit": "h"}, {"measurement": "Tmax", "setting": "Mus musculus [3]", "result": 2, "unit": "h"}, {"measurement": "remaining at 1 h, 50 µM", "setting": "[4]", "result": 97.2, "unit": "%"}, {"measurement": "remaining at 1 h, 50 µM", "setting": "[5]", "result": 89.2, "unit": "%"}, {"measurement": "concentration at 24 h", "setting": "[6]", "result": 2.6, "unit": "µM"}, {"measurement": "Drug uptake", "setting": "Brain", "result": 2.7, "unit": "nmol/g"}, {"measurement": "Cmax", "setting": "[7]", "result": 6.83, "unit": "µM"}, {"measurement": "Tmax", "setting": "[8]", "result": 0.5, "unit": "h"}, {"measurement": "MRT", "setting": "[9]", "result": 19.1, "unit": "h"}, {"measurement": "AUC(0-inf)", "setting": "[10]", "result": 79.7, "unit": "µM·h"}, {"measurement": "AUC(0-t) at 24 h", "setting": "[11]", "result": 56.1, "unit": "µM·h"}, {"measurement": "CL/F", "setting": "[12]", "result": 0.46, "unit": "mL/min"}, {"measurement": "half-life", "setting": "[13]", "result": 14.8, "unit": "h"}, {"measurement": "Cmax", "setting": "Mus musculus [14]", "result": 6.07, "unit": "µM"}, {"measurement": "Tmax", "setting": "Mus musculus [15]", "result": 1.5, "unit": "h"}, {"measurement": "MRT", "setting": "Mus musculus [16]", "result": 46.62, "unit": "h"}, {"measurement": "AUC", "setting": "Mus musculus [17]", "result": 135.11, "unit": "µM·h"}, {"measurement": "AUC", "setting": "Mus musculus [18]", "result": 55.14, "unit": "µM·h"}, {"measurement": "CL", "setting": "Mus musculus [19]", "result": 0.27, "unit": "mL/min"}, {"measurement": "t1/2", "setting": "Mus musculus [20]", "result": 33.3, "unit": "h"}, {"measurement": "Cmax", "setting": "Mus musculus [21]", "result": 5.35, "unit": "µM"}, {"measurement": "AUC", "setting": "Mus musculus [22]", "result": 43.53, "unit": "µM·h"}, {"measurement": "AUC", "setting": "Mus musculus [23]", "result": 36.69, "unit": "µM·h"}, {"measurement": "CL", "setting": "Mus musculus [24]", "result": 1.14, "unit": "mL/min"}, {"measurement": "t1/2", "setting": "Mus musculus [25]", "result": 9.06, "unit": "h"}, {"measurement": "Drug uptake", "setting": "Kidney", "result": 3.6, "unit": "nmol/g"}, {"measurement": "Drug uptake", "setting": "[26]", "result": 51.2, "unit": "nmol/g"}, {"measurement": "Drug uptake", "setting": "Liver", "result": 1.7, "unit": "nmol/g"}, {"measurement": "IC50", "setting": "cells [27]", "result": 17.3, "unit": "µM"}, {"measurement": "IC50", "setting": "cells [28]", "result": 6.8, "unit": "µM"}, {"measurement": "IC50", "setting": "cells [29]", "result": 1.9, "unit": "µM"}, {"measurement": "Papp at 5 h, 500 µM", "setting": "physchem [30]", "result": 7.1, "unit": "×10⁻⁶ cm/s"}, {"measurement": "solubility at 24 h", "setting": "physchem [31]", "result": 3.7, "unit": "µg/mL"}]}
